Laboratory results as given in US5614504A, “Method of making inosine monophosphate derivatives and immunopotentiating uses thereof” (The University of South Florida, priority 1995, dated 1997).

Assays:
L. monocytogenes EGD = experiment: Listeria infection mortality; type: in vivo, BALB/c mice; conditions: for Mortality: Dead/Total: 1 dose, Day -5, day 4
[1] = system: delayed-type hypersensitivity response; experiment: Delayed-type hypersensitivity in vivo (footpad swelling, SRBC); design: species or system mice
Method: Mice were immunized by intraperitoneal administration of SRBC in graded doses of from 10^6 to 10^9 cells. […] A dose of 10^7 was chosen to immunize animals in this study.
Four days following immunization, each mouse was challenged by injecting the left hind footpad subcutaneously with 10^8 SRBC in 50 μl phosphate buffered saline (PBS). Vehicle (50 μl PBS) was injected subcutaneously into the right hind footpad as a control. The compounds being tested were injected intraperitoneally either at the time of immunization or at the time of elicitation. After 24 hours of challenge, footpad swelling was measured as the increase in footpad thickness (left minus right) using Engineer's calipers.
The results are expressed as increments of footpad thickness in 0.1 mmunits. The characteristics of delayed-type hypersensitivity measured in this way have been described previously in MacDonald et al. (1979). FIGS. 13 and 14 show the results of this testing.

IL-2 = experiment: PHA-induced IL-2 production; type: cell-based; conditions: preliminary data
Acute toxicity (LD50) = conditions: in vivo
[2] = system: Friend Leukemia Virus (FLV); experiment: Survival of mice infected with Friend Leukemia Virus; type: in vivo, BALB/c mice; conditions: 1 mg/kg/day i.p. day 3 to day 13; P<0.004 Wilcoxon
Method: Control mice were treated with saline intraperitoneally from day 3 to day 13 following infection, and Me-IMP treated mice were treated with 1 mg/kg/day from day 3 to day 13, and the day of death was recorded.

**Q.** Which MST and survivors (L. monocytogenes EGD; 0.1 to 10 mg/kg, combined i.p. and p.o. from five days prior to challenge) does the source give for COP(=O)(O)OC[C@H]1O[C@@H](n2cnc3c(=O)[nH]cnc32)[C@H](O)[C@@H]1O [Me-IMP, Methyl-5'-inosine-monophosphate] here?
**A.** increased MST and survivors

**Q.** What about the “mean survival time (MST) and absolute number of survivors” value (L. monocytogenes EGD; by mouth and at 1 and 10 mg/kg by i.p. injection, five days prior to challenge) of the same compound?
**A.** increased mean survival time (MST) and the absolute number of survivors

**Q.** And the “Mortality: Dead/Total” value (L. monocytogenes EGD; scheme N1 2: MIMP 1.0 per os)?
**A.** 2/3

**Q.** What about the “Mortality: Dead/Total” value (L. monocytogenes EGD; scheme N1 3: MIMP 10.0 per os) of the same compound?
**A.** 1/8

**Q.** And the delayed-type hypersensitivity response ([1]; one dose i.p. at the time of challenge)?
**A.** not significant

**Q.** What about the delayed-type hypersensitivity response ([1]; one dose i.p. at the time of immunization) of the same compound?
**A.** significantly stimulated

**Q.** What about the “effect on PHA-induced IL-2” value (IL-2) of the same compound?
**A.** only a small effect

**Q.** And the LD50 (Acute toxicity (LD50); ip, intraperitoneally)?
**A.** > 500 mg/kg

**Q.** And the LD50 (Acute toxicity (LD50); po, orally)?
**A.** > 5000 mg/kg

**Q.** What about the “mean survival time (MST)” value [2] of the same compound?
**A.** larger mean survival time
